Key:
[1] = test system: Mycoplasma pneumoniae; assay: In vitro effectiveness against Mycoplasma pneumoniae (color change); type: cell-based; conditions: 40 hours treatment
Experimental: Terpene beta-ionone or L-carvone was first mixed well with Tween® 80 to have a final Tween® 80 concentration of 5%. This mixture was then used to make concentrations of 2500 ppm in sterile phosphate buffer saline (PBS) by blending the mixture in PBS for 40 seconds. This 2500 ppm solution was then diluted to 500 ppm, 250 ppm, and 125 ppm with PBS.
PBS containing 25 ppm Tween® 80 or PBS alone was used to treat cells suspension as controls.
A log phase (2-3-day old) culture of Mycoplasma pneumoniae was mixed with each of the above three concentrations of terpene at 1:1 (volume) ratio (in this case, 1 mL of cell suspension was added to 1 mL of terpene).
The culture and terpene mixture was then incubated at 37° C. for 40 hours. After 40 hours of treatment, 10-fold serial dilution was performed to 10 (−10) by first taking 0.1 mL of the treated culture suspension was added into 0.9 mL of fresh SP4 (Whitcomb (1983); SP4 media is commercially available (Remel, Lenexa, Kans., USA)). All the tubes were then incubated at 37° C., and a color change of the medium was used for the indication of the cells that either were killed or survived from the treatment. Color change was from red to yellow because Mycoplasma pneumoniae produces acid during its growth.

[2] = test system: erythrocytes; type: cell-based, Human
Experimental: These mixtures were incubated for 20 minutes.

[3] = Solution levels of terpenes in water (no surfactant, high-shear blending); type: physicochemical; conditions: for Solution levels for various terpenes: Level: maximum level solubilized in water without surfactant
[4] = test system: Mycoplasma iowae; assay: Effect of citral on growth of Mycoplasma iowae (color changing units); type: cell-based
Experimental: M. iowae is a known avian respiratory disease agent. […] Mycoplasma iowae were incubated at 37° C. in R2 (Chen, T. A., J. M. Wells, and C. H. Liao. 1982. Cultivation in vitro: spiroplasmas, plant mycoplasmas, and other fastidious, walled prokaryotes. pp. 417-446. in Phytopathogenic prokaryotes, V. 2, M. S. Mount and G. H. Lacy (ed.), Academic Press, New York) broth. One to 2-day old cultures were observed under a dark-field microscope to ensure cells were in filamentous form before treatment. Cell suspensions were vortexed to ensure they were evenly mixed before and an aliquot of 0.5 mL was dispensed into a sterile tube. […] The treated cell suspension was incubated for 24 hrs before the color changing units (CCUs) were determined by a 10-fold serial dilution in fresh R2. All treatments were duplicated. […] All culture tubes were incubated for 15 days before final readings were taken. A comparison was made of the effect of 24-hr and 48-hr treatment times. The CCUs were determined by taking treated cell suspension from the same treated tube 24 hrs or 48 hrs after treatment.

[5] = test system: E. coli; conditions: cited from earlier work
[6] = Break down / loss of potency of terpenes in the presence of oxygen; type: physicochemical; conditions: 500 ppm solution
Text: Terpenes will break down in the presence of oxygen. Citral, for example, is an aldehyde and will decay (oxygenate) over a period of days.

[7] = test system: H. pylori; conditions: cited from earlier work
[8] = 62.5 ppm (5% Tween 80, PBS), three days after 10-fold dilution
[9] = 62.5 ppm, 6 days after 10-fold dilution
[10] = 125 ppm (5% Tween 80, PBS), three days after 10-fold dilution
[11] = 125 ppm, 6 days after 10-fold dilution
[12] = 250 ppm (5% Tween 80, PBS), three days after 10-fold dilution
[13] = 250 ppm, 6 days after 10-fold dilution

| Compound | color change of medium / killing effect [1, 8] | color change of medium / killing effect [1, 9] | color change of medium / killing effect [1, 10] | color change of medium / killing effect [1, 11] | color change of medium / killing effect [1, 12] | color change of medium / killing effect [1, 13] | Concentration at which erythrocytes lyse [2] [ppm] | Solution levels for various terpenes: Level [3] [ppm] | also measured |
| --- | --- | --- | --- | --- | --- | --- | --- | --- | --- |
| L-carvone | no killing effects | second and third tube | no killing effects | second and third tube | no killing effects | second and third tube | 250 | – | – |
| Terpeniol | – | – | – | – | – | – | – | 500 | – |
| CC(C)=CCCC(C)=CC=O [Citral, 3,7-dimethyl-2,6-octadien-1-al] | – | – | – | – | – | – | – | – | color changing units after treatment ([4]; 62.5 ppm, 24 hr (Table 4)): 10^6 CCUs; color changing units after treatment ([4]; 62.5 ppm, 24 hrs (Table 3)): 10^8 CCUs; color changing units after treatment ([4]; 62.5 ppm, 48 hr (Table 4)): 10^6 CCUs; color changing units after treatment ([4]; 125 ppm, 24 hr (Table 4)): 10^7 CCUs; color changing units after treatment ([4]; 125 ppm, 24 hrs (Table 3)): 10^8 CCUs; color changing units after treatment ([4]; 125 ppm, 48 hr (Table 4)): 10^6 CCUs; color changing units after treatment ([4]; 250 ppm, 24 hr (Table 4)): 10^5 CCUs; color changing units after treatment ([4]; 250 ppm, 24 hrs (Table 3)): 10^7 CCUs; color changing units after treatment ([4]; 250 ppm, 48 hr (Table 4)): 10^4 CCUs; concentration that will lyse human erythrocytes ([2]; human, 20 min): about 1000 ppm; stable suspension can be formed up to ([3]; suspension): about 2500 ppm; citral concentration with bactericidal effect [5]: 0.08%; citral in growth media that reduced the concentration of E. coli [5]: more than 0.01%; time in which solution loses half its potency [6]: 2-3 weeks |
| C=C(C)C1CC=C(C)C(=O)C1 (stereo not drawn) [Carvone] | – | – | – | – | – | – | – | 500 | – |
| CC(=O)/C=C/C1=C(C)CCCC1(C)C [b-ionone] | did not change color at all | only the first tube | did not change color at all | may have completely killed all cells | did not change color at all | may have completely killed all cells | 2000 | 500 | – |
| CC(C)=CCC/C(C)=C/CO [Geraniol] | – | – | – | – | – | – | – | 500 | concentration that inhibited the growth of H. pylori in vitro [7]: 2 mg/L |

Reference: US20030180349A1, “Respiratory infection prevention and treatment with terpene-containing compositions” (priority 2001, published 2003)
